ChEMBL document CHEMBL1201862, “PubChem BioAssay data set” (2004)
Where “and” joins values, the source holds several entries; their conditions need not be identical. Equal entries are not always repeated. Calls of active or inactive are those of the source.

Experiments:
[1] = target: Sphingosine 1-phosphate receptor 1 (Homo sapiens, UniProt P21453); experiment: Fluorescence-based counterscreen assay for S1P4 agonists: Cell-based dose response high throughput screening assay to identify agonists of the Sphingosine 1-Phosphate Receptor 1 (S1P1). [Related pubchem assays (depositor defined):AID1509, AID1523, AID1801, AID463107, AID463118, AID463119, AID463122, AID463123, AID463129, AID463225, AID504400, AID504460]; type: functional
[2] = target: T1, Sphingosine 1-phosphate receptor 4 (Homo sapiens, UniProt O95977); experiment: Fluorescence dose response cell-based high throughput screening assay for agonists of the Sphingosine 1-Phosphate Receptor 4 (S1P4). [Related pubchem assays: 1509 (Primary screen.), 1523 (Confirmation screen in triplicates.)]; type: functional
T1 sequence (O95977 whole entry): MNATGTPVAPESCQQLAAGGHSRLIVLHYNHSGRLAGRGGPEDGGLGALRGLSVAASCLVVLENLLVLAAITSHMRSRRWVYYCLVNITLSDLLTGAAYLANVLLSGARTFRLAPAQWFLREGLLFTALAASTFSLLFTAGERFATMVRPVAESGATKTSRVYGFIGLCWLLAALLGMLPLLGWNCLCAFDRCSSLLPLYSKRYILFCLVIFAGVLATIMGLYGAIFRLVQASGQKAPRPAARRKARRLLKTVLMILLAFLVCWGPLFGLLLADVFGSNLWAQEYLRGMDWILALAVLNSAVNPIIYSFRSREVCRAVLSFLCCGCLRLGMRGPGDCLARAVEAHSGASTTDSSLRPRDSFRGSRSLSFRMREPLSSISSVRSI

Genome polyprotein = Genome polyprotein (Hepatitis C virus, UniProt Q2Q167); experiment: disruption of hepatitis C core self-association – biochemical, TR-FRET, dose response (AID 2159); set-up: species or system Hepacivirus hominis;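 further: blocks dimerization of HCV core protein measured by TR-FRET between tagged core106 pairs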
Bcl-2-like protein 10 = target: T2, Bcl-2-like protein 10 (Homo sapiens, UniProt Q9HD36); experiment: Bcl-B/TR3 peptide binding disruption – biochemical, fluorescence polarization, FITC-TR3 peptide, selectivity assay for Bfl-1 inhibitor project, primary screen (AID 748);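 further: fluorescence polarization from a fluorescein-labelled TR3 peptide binding purified Bcl-B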
T2 sequence (Q9HD36 whole entry): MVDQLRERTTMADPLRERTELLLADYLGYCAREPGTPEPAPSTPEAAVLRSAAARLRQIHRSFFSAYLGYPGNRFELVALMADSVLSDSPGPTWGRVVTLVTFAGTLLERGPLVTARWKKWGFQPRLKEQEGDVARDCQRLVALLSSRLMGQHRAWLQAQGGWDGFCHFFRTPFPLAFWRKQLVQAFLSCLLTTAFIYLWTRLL

Protein Rev = Protein Rev (Human immunodeficiency virus type 1 group M subtype B (isolate WMJ22)(HIV-1), UniProt P05866); experiment: inhibitors of Rev protein–RRE RNA complex – biochemical, protein-RNA interaction, dose response (AID 842); set-up: species or system Human immunodeficiency virus 1
SUMO-activating enzyme [3] = target: T3, SUMO-activating enzyme (Homo sapiens, UniProt Q9UBT2); experiment: blockers of UBC9-mediated SUMO conjugation – biochemical, AlphaScreen, SUMOylation inhibitor project, confirmation (AID 2018); type: functional
[4] = target: T4, Voltage-gated N-type calcium channel alpha-1B subunit/Amyloid beta A4 precursor protein-binding family A member 1 (Homo sapiens, UniProt Q00975+Q02410); type: protein assay
SUMO-activating enzyme [5] = target: T3, SUMO-activating enzyme; experiment: blockers of SAE1/SAE2–UBC9 SUMO transfer – biochemical, HTRF, uHTS, primary screen (AID 2006); type: protein-complex assay
[6] = target: T4, Voltage-gated N-type calcium channel alpha-1B subunit/Amyloid beta A4 precursor protein-binding family A member 1; type: protein assay; remark: listed apart in the source
[7] = target: Protein-tyrosine kinase 2-beta (Homo sapiens, UniProt Q14289);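 further: potency of inhibitors of PYK2 kinase phosphorylation of poly-GT substrate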
SUMO E1/E2 = SUMO E1/E2 (Homo sapiens, UniProt P63279+Q9UBE0+Q9UBT2); experiment: SAR analysis of SUMOylation using HTRF in an in-Vitro dose response assay. [Related pubchem assays (depositor defined):AID2006, AID2011, AID2018, AID2069, AID2658]; type: functional
[8] = target: T4, Voltage-gated N-type calcium channel alpha-1B subunit/Amyloid beta A4 precursor protein-binding family A member 1; experiment: disruptors of Mint-PDZ/N-type channel peptide interaction – biochemical, HTRF, set 2, SAR follow-up (AID 434980); type: functional
[9] = target: T4, Voltage-gated N-type calcium channel alpha-1B subunit/Amyloid beta A4 precursor protein-binding family A member 1; experiment: disruptors of Mint-PDZ/N-type channel peptide interaction – biochemical, HTRF, SAR follow-up (AID 2489); type: functional
[10] = target: DNA (cytosine-5)-methyltransferase 1 (Homo sapiens, UniProt P26358); experiment: inhibition of DNA methylation by DNMT1 – biochemical, fluorescent molecular beacon, confirmation (AID 602386); type: functional
[11] = target: T5, Probable nicotinate-nucleotide adenylyltransferase (Staphylococcus aureus (strain N315), UniProt P65502); type: functional, Staphylococcus aureus subsp. aureus N315;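 on IC50 Mean: confirmatory dose-response retesting of NadD inhibitor hits first found in an ultra-high-throughput screen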
[12] = target: T5, Probable nicotinate-nucleotide adenylyltransferase; type: functional, Staphylococcus aureus subsp. aureus N315; details: read-out: IC50_Mean
[13] = target: T6, Rac GTPase-activating protein 1 (Homo sapiens, UniProt Q9H0H5); experiment: blockers of MgcRacGAP-driven Rac1 GTP hydrolysis – biochemical, ADP Hunter fluorescence, primary and confirmatory, confirmation (AID 624330); type: functional
T6 sequence (Q9H0H5 whole entry): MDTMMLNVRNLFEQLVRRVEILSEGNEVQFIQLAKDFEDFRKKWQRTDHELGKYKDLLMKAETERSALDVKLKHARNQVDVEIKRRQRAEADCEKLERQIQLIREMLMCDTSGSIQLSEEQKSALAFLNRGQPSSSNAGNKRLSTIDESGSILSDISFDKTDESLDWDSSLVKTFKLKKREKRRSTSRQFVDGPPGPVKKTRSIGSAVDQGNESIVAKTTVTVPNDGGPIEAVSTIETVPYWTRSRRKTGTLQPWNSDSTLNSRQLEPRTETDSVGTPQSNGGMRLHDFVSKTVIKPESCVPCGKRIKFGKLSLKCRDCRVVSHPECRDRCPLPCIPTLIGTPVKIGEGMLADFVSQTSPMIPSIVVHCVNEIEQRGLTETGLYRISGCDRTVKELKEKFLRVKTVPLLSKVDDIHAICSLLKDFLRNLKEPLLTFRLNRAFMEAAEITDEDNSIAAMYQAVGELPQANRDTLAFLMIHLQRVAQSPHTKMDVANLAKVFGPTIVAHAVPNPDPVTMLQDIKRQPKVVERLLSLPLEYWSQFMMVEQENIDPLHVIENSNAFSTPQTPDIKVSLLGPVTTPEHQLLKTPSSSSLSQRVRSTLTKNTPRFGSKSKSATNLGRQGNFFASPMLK

Albumin = Albumin (Bos taurus, UniProt P02769); experiment: Counterscreen for inhibitors of T-cell receptor (TCR)-CD3 interaction: Fluorescence-based biochemical high throughput dose response assay to identify inhibitors of T-cell receptor (TCR)-CD3 interaction using a TAMRA-labeled BSA probe.; type: functional

T4 sequence (Q00975 whole entry): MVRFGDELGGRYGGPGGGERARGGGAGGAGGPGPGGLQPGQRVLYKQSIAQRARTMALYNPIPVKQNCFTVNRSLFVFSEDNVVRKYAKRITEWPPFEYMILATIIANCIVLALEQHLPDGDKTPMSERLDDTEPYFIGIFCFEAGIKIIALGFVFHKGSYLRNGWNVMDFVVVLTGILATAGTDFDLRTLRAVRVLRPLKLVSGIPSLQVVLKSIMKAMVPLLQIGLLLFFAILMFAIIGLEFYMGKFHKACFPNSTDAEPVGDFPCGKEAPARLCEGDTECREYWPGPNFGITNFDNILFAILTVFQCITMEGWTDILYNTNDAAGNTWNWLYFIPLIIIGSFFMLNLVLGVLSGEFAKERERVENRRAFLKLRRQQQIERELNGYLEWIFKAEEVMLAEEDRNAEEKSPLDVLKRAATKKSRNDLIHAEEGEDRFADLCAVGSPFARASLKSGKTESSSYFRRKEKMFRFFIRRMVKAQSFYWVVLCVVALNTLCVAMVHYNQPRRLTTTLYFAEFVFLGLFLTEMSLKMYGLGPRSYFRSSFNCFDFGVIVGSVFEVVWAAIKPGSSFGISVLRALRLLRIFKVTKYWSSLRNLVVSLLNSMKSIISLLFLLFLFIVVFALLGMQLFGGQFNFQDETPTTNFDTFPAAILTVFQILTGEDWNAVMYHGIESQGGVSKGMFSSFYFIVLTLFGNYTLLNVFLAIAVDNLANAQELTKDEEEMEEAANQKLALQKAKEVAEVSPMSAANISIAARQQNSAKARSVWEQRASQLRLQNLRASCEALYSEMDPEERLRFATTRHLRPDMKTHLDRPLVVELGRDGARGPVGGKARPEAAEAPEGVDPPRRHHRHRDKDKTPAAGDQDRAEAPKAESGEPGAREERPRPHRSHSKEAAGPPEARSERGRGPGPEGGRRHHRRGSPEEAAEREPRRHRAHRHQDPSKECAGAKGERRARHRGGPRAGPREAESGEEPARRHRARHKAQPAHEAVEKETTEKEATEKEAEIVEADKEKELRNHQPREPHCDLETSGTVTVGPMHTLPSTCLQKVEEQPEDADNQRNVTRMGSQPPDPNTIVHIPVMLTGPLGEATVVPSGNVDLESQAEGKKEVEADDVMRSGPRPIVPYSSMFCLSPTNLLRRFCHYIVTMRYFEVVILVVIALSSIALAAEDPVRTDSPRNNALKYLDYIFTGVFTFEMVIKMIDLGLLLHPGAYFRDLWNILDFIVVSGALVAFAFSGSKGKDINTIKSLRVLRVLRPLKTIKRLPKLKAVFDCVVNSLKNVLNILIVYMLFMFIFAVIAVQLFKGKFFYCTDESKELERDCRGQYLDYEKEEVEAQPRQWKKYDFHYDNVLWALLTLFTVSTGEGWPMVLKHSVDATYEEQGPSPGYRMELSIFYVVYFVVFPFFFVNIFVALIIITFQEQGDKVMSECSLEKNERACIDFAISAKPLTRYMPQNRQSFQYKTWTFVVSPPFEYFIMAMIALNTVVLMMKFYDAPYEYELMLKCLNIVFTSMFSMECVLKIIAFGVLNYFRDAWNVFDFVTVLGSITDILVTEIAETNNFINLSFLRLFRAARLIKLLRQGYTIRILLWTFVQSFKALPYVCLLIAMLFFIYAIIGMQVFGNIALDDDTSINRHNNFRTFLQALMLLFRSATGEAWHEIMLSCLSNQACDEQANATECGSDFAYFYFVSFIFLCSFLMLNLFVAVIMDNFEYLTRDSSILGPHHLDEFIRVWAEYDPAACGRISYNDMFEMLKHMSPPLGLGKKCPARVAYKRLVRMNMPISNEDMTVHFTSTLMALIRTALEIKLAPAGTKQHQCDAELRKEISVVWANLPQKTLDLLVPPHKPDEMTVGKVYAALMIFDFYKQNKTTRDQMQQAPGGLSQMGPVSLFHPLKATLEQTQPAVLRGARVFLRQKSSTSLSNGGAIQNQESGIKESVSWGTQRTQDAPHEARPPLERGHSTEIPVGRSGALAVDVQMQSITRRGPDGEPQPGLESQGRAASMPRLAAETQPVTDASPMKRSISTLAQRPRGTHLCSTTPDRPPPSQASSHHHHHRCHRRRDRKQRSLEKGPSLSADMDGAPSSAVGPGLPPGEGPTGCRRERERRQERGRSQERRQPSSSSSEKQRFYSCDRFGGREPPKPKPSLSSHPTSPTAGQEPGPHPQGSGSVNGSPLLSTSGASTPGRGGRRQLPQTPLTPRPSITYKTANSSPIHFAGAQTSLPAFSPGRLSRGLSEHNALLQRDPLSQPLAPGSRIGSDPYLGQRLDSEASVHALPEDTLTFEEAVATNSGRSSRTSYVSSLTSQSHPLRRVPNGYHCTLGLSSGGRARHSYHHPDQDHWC
T4 sequence (Q02410 whole entry): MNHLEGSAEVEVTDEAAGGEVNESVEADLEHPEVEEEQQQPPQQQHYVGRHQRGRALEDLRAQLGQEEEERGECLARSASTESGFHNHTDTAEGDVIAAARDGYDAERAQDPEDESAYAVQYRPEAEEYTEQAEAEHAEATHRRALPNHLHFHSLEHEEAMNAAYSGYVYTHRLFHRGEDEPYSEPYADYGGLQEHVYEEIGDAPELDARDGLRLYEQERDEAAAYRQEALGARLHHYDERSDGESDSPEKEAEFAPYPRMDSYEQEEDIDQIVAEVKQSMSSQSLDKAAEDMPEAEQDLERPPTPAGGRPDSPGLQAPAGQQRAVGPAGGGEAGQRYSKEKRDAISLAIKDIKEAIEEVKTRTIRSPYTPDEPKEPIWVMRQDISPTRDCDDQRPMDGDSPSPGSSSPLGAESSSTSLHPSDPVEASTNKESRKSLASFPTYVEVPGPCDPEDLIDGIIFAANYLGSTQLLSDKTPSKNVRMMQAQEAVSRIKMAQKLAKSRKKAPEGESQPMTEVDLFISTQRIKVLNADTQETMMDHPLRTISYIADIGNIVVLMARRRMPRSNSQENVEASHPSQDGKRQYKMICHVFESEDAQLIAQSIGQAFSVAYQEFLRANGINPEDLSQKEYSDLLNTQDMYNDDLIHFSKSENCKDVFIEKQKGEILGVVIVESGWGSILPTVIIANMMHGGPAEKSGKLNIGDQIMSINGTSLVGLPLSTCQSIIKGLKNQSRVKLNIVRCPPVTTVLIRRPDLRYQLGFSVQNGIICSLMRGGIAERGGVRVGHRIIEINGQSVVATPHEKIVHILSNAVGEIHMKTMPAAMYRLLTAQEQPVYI
T3 sequence (Q9UBE0 whole entry): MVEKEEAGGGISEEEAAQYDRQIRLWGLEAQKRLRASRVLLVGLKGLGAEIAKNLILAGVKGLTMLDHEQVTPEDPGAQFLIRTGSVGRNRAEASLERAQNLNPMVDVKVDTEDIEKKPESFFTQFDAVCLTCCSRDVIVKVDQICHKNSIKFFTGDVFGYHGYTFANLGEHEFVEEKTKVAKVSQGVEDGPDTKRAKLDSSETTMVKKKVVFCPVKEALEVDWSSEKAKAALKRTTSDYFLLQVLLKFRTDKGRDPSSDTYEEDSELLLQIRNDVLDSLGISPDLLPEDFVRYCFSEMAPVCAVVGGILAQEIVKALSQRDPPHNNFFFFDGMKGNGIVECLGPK
T3 sequence (Q9UBT2 whole entry): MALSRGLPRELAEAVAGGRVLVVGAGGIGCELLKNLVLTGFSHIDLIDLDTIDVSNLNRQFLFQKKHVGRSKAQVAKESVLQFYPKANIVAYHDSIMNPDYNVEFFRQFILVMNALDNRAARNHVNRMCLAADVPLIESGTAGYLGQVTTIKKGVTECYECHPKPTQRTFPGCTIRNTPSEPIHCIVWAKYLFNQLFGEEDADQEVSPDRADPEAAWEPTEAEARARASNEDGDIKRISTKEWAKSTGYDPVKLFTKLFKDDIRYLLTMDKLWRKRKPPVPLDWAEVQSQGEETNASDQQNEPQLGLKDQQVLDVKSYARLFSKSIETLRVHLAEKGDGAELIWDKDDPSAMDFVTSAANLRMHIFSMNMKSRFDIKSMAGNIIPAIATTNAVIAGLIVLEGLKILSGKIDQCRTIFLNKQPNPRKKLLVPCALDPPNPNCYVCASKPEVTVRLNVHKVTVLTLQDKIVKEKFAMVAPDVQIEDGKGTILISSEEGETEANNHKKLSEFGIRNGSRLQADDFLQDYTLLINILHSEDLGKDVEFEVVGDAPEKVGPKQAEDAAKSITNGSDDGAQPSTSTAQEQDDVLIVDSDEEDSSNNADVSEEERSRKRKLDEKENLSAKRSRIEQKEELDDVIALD
SUMO E1/E2, sequence (Q9UBE0 whole entry): as the sequence (Q9UBE0 whole entry) above
SUMO E1/E2, sequence (Q9UBT2 whole entry): as the sequence (Q9UBT2 whole entry) above
SUMO E1/E2, sequence (P63279 whole entry): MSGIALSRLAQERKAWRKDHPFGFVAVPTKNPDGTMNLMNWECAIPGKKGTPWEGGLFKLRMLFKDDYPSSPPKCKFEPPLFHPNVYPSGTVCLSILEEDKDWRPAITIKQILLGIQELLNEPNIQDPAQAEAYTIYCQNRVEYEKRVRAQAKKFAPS
Protein Rev, sequence (P05866 whole entry): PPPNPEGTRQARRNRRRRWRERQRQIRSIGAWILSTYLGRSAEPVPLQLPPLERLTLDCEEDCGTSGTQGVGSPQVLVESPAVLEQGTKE
Sphingosine 1-phosphate receptor 1, sequence (P21453 whole entry): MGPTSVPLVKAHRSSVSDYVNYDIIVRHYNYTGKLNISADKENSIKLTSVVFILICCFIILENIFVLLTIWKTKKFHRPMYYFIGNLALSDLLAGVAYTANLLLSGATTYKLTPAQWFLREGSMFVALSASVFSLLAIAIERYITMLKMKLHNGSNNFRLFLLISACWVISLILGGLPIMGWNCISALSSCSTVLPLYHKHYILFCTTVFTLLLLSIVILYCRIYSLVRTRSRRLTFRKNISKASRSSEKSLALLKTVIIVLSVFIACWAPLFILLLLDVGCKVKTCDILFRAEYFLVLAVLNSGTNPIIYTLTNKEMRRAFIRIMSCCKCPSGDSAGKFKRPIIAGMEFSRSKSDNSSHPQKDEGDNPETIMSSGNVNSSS
Genome polyprotein, sequence (Q2Q167 whole entry): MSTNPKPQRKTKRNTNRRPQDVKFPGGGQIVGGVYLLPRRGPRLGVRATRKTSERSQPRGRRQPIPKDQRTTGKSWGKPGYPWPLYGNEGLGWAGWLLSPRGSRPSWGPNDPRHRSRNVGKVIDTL

EC50 [1] | EC50 [2] | Compound | IC50 (Genome polyprotein) | IC50 (Bcl-2-like protein 10) | IC50 (Protein Rev) | IC50 (SUMO-activating enzyme [3]) | IC50 [4] | IC50 (SUMO-activating enzyme [5]) | IC50 [6] | IC50 [7] | IC50 (SUMO E1/E2) | IC50 [8] | IC50 [9] | IC50 [10] | IC50 [11] | IC50 [12] | IC50 [13] | IC50 (Albumin)
4.14 µM (active) | 1.88 µM (active) | CC(=O)c1cc2ccc(O)cc2oc1=O | – | – | – | – | – | – | – | – | – | – | – | – | – | – | – | –
– | – | O=C(N/N=C/c1ccc(F)cc1)c1cc(-c2ccco2)nc2ccccc12 | > 49.8 µM (not active) | 2.97 µM (active) | > 79.4 µM (not active) | 2.28 µM (active) | 8.83 µM (active) | 10.6 µM (active) | 6.44 µM (active) | 2.01 µM (active) | 4.33 µM (active) and 8.06 µM (active) | 5.57 µM (active) | 14.6 µM (active) | 5.57 µM (active) | 10.8 µM (active) | 27.1 µM (active) | 108 µM (active) | > 94.1 µM (inactive)
